The text below walks through data of ChEMBL document CHEMBL5360520, “Catalytic covalent inhibition of cyclooxygenase-1 by a biomimetic acyltransferase” (Bioorg Med Chem, 2022).

Structures are written as SMILES. Calls of active or inactive are those of the source. The rule behind the calls is not given here.

Series [1] concerns the target T1, Prostaglandin G/H synthase 1 (Ovis aries) (UniProt P05979).
T1 sequence (whole entry): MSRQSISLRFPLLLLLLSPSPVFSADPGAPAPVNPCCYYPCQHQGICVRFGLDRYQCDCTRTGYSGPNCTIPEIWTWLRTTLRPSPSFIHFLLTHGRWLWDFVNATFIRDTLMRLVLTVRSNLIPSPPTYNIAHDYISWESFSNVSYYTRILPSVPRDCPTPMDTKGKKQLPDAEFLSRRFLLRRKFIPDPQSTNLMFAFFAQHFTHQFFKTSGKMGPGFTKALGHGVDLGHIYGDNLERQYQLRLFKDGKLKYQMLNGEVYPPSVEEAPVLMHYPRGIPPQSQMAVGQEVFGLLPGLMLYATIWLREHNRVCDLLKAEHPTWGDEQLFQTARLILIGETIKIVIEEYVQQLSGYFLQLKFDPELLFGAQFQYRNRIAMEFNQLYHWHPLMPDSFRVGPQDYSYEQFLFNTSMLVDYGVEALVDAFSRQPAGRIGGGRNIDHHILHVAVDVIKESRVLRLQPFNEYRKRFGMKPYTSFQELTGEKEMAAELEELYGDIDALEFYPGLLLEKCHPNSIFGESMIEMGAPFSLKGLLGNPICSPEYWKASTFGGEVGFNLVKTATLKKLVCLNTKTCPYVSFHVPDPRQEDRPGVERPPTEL
Briefly: Covalent inhibition of recombinant ovine COX1 using arachidonic acid as substrate assessed as reduction in PGE2 production at 40 uM preincubated with compound for […] followed by substrate addition and measured after 10 mins in the presence of AcSNAC by LC-MS/MS analysis. The following applies: time 370.0 min.

Series [2] has as its target Prostaglandin G/H synthase 1 (Homo sapiens) (UniProt P23219). Description: Covalent inhibition of COX1 in LPS-treated human A549 cells using arachidonic acid as substrate assessed as reduction in PGE2 production at 40 uM preincubated with compound for 12 hrs followed by washout and measured after 20 mins of substrate addition by LC-MS/MS analysis.
In series [3] the target is T1, Prostaglandin G/H synthase 1 (Ovis aries). Briefly: Covalent inhibition of recombinant ovine COX-1 using arachidonic acid as substrate assessed as reduction in PGE2 production preincubated with compound followed by substrate addition and measured after 10 mins by LC-MS/MS analysis. As to conditions: time 70-310 min, TDE = time-dependent effect.
The target of series [4] is T2, Prostaglandin G/H synthase 1 (Ovis aries, UniProt P05979).
T2 sequence (P05979 whole entry): T1 sequence (whole entry)
Description: Non-covalent binding affinity to recombinant ovine COX1 using arachidonic acid as substrate assessed as binding constant preincubated with compound for 10 to 40 mins followed by substrate addition and measured after 10 mins by LC-MS/MS analysis.

The target of series [5] is T1, Prostaglandin G/H synthase 1 (Ovis aries). Briefly: Covalent inhibition of recombinant ovine COX1 using arachidonic acid as substrate assessed as inhibition rate preincubated with compound for 10 to 40 mins followed by substrate addition and measured after 10 mins by LC-MS/MS analysis. The following applies: time 20-50 min.
The target is the same in series [6]. Briefly: Inhibition of recombinant ovine COX1 using arachidonic acid as substrate assessed as Kinact/Ki ratio preincubated with compound for 10 to 40 mins followed by substrate addition and measured after 10 mins by LC-MS/MS analysis. The following applies: time 20-50 min.
The target is the same in series [7]. Description: Covalent inhibition of recombinant ovine COX1 using arachidonic acid as substrate assessed as reduction in PGE2 production preincubated with compound for 6 hrs followed by substrate addition for 10 mins and measured after 8 hrs of dialysis by LC-MS/MS analysis. The following applies: time 370.0 min.
Series [8] has the same target. Briefly: Covalent inhibition of recombinant ovine COX1 using arachidonic acid as substrate assessed as acetylation at Ser530 residues preincubated with compound followed by substrate addition and measured after 10 mins by LC-MS/MS analysis.
For series [9], the system named is A549. Description: Cytotoxicity against human A549 cells assessed as reduction in cell viability at 15 uM by MTT assay. The series is classed as toxicity, cell-based. The following applies: a549, 15 µM. (In general: Tetrazolium dyes change colour on reduction, which living cells bring about.)
The target in series [10] is T1, Prostaglandin G/H synthase 1 (Ovis aries). Description: Covalent inhibition of recombinant ovine COX1 using arachidonic acid as substrate assessed as reduction in PGE2 production preincubated with compound followed by substrate addition and measured after 10 mins by LC-MS/MS analysis relative to control.
Series [11] has the same target. Briefly: Covalent inhibition of recombinant ovine COX1 using arachidonic acid as substrate assessed as residual activity preincubated with compound for 6 hrs followed by substrate addition for 10 mins and measured after 8 hrs of dialysis by LC-MS/MS analysis relative to control. The following applies: time 370.0 min.
Series [12] addresses T2, Prostaglandin G/H synthase 1. Briefly: Covalent inhibition of recombinant ovine COX-1 using arachidonic acid as substrate assessed as reduction in PGE2 production preincubated with compound for 1 hrs followed by substrate addition and measured after 10 mins by LC-MS/MS analysis.
The target is the same in series [13]. Description: Covalent inhibition of recombinant ovine COX-1 using arachidonic acid as substrate assessed as reduction in PGE2 production preincubated with compound for 5 hrs followed by substrate addition and measured after 10 mins by LC-MS/MS analysis.
Series [14] deals with Prostaglandin G/H synthase 1 (Homo sapiens) (UniProt P23219). Briefly: Covalent inhibition of COX1 in LPS-treated human A549 cells using arachidonic acid as substrate assessed as reduction in PGE2 production at 40 uM measured every 24 hrs by LC-MS/MS analysis. The following applies: time <= 48.0 hrs, TDE = time-dependent effect.
For series [15], the target named is T1, Prostaglandin G/H synthase 1 (Ovis aries). Briefly: Covalent inhibition of recombinant ovine COX1 using arachidonic acid as substrate assessed as reduction in PGE2 production at 10 uM preincubated with compound for 16 hrs followed by substrate addition for 10 mins in the presence of AcSNAC and measured after 16 hrs of dialysis by LC-MS/MS analysis. As to conditions: time 970.0 min.

Series [16] addresses Prostaglandin G/H synthase 1 (Homo sapiens) (UniProt P23219). Briefly: Covalent inhibition of COX1 in LPS-treated human A549 cells using arachidonic acid as substrate assessed as reduction in PGE2 production at 15 uM preincubated with compound for 24 hrs followed by washout and measured after 20 mins of substrate addition by LC-MS/MS analysis.

Turning to `CCCCCCNC(=O)c1ccccc1S`, the inhibition entry in series [1] and in series [2] was “Active” in each case.
Take `CCCCC#CCNC(=O)c1ccccc1SC(C)=O`: in series [3], the inhibition (usually the change of the read-out against control, counted positive when it falls) is “Tde”. Further, the Ki in series [4] turned out to be 8.9 µM. Also, in series [5], the Kinact was 2.2 10^-2/min. Moreover, the Ratio in series [6] was 2.58 10^-3/min/µM. The inhibition result in series [7] and in series [8] was “Active” each time. Moreover, the Activity entry in series [9] is recorded as “Non-Toxic”.
Consider `CCCCC#CCNC(=O)c1ccccc1SC`, for which, in [10], the inhibition amounted to 97%. The Activity in series [11] turned out to be 83%.
Turning to `CC(=O)Oc1ccccc1C(=O)O` [ASPIRIN], the inhibition entry in series [3] is “Tde”. Besides, the Activity result in series [9] is reported as “Non-Toxic”.
For the compound `CCCCCCNC(=O)c1ccccc1SC(C)=O`, the results for the IC50 in series [12] and in [13] were 50 µM and 10 µM, respectively. Moreover, in series [4], the Ki was found to be 33.9 µM. For the same compound, in series [5], the Kinact is 2.1 10^-2/min. In addition, the Ratio in [6] is 0.65 10^-3/min/µM. The inhibition result in series [8] and in series [2] was “Active” each time. In addition, the inhibition result in [14] is “Tde”.
Regarding `CCCCC#CCNC(=O)c1ccccc1S`, the Activity result in series [9] is recorded as “Non-Toxic”. In addition, the inhibition result in series [15] was “Active”. Also, the inhibition in series [16] is 60%.
Turning to `C#CCNC(=O)c1ccccc1SC(C)=O`, the inhibition result in series [3] was “Tde”. In addition, in [4], the Ki was 15.2 µM. In addition, the Kinact in series [5] was 2.5 10^-2/min. Besides, the Ratio in series [6] was 2.4 10^-3/min/µM.
